From patent US20220235073A1, “ARTEMISININ-DERIVATIVE N-HETEROCYCLIC CARBENE GOLD(I) HYBRID COMPLEXES” (CENTRE NATIONAL DE LA RECHERCHE SCIENTIFIQUE, priority 2019, published 2022)
Where two headings read alike, the source gives them in different places. Each block holds one molecule with its values, some of them ahead of it.

Assays:
Tumor cell models = assay: MTT assay, panel of tumor cell models; type: cell-based, human; settings: mean of PC-3, A549, U2OS, T24, MCF-7, LAMA, HL60
Protocol: (§1) PC-3 human prostate cancer cells, and LAMA chronic myeloid leukemia were cultured in RPMI 1640 containing 10% fetal bovine serum and 1% antibiotics (100 U/mL penicillin and 100 μg/mL streotimycin) at 37° C. in 5% CO2 humidified incubators. HL60 […] were cultured in RPMI 1640 containing 15% fetal bovine serum and 1% antibiotics (100 U/mL penicillin and 100 μg/mL streotimycin) at 37° C. in 5% CO2 humidified incubators. HepG-2 human liver cancer cells were cultured in EMEM containing 10% of FBS, 1% of nonessential amino acids, 1 mM of Na-pyruvate, 1% of PenStrep antibiotics and 600 μg/mL of Geneticin. A549 human lung carcinoma cells, T24 human bladder carcinoma cells, MCF-7 human breast adenocarcinoma cells, U-2OS human osteosarcoma and NIH3T3 murine fibroblast cells were cultured in DMEM medium containing 10% fetal bovine serum and 1% antibiotics at 37° C. in 5% CO2 humidified incubators. MC3T3 mouse osteoblast cells were cultured in MEM medium containing 10% fetal bovine serum and 1% antibiotics at 37° C. in 5% CO2 humidified incubators. RWPE-1 human prostate normal cells were cultured in K-SFM medium containing 0.05 mg/ml bovine pituitary extract (BPE) and 5 ng/ml epidermal growth factor (EGF) at 37° C. in 5% CO2 humidified incubators. The MTT reagent (3-(4,5-dimethylthiazol-2-yl)-2,5-diphenyltetrazolium bromide) was used to determine cell death as originally described by Mosmaneland modified by Cuvillier et al.^[6] Briefly, cells were seeded 5,000 to 10,000 cells/well in 24-well plates depending on the cell type and allowed to attach overnight. All of the complexes were dissolved in DMSO. The concentration of the complexes was calculated according to the elemental composition of the complexes determined by the elemental analyses. […] After solubilization with 500 μL of lysis buffer (DMSO), formazan was quantified by spectrophotometry with a microplate reader at 570 nm absorbance. […] All the results were calculated from data obtained in three independent experiments.

[1] = test system: HL60 (acute myeloid leukemia); assay: Cell viability MTT assay, HL60; type: cell-based; settings: for GI50: 72 h, MTT assay; for IC50: Table 3, tumor cell model
Protocol: (§2) PC-3 human prostate cancer cells, and LAMA chronic myeloid leukemia were cultured in RPMI 1640 containing 10% fetal bovine serum and 1% antibiotics (100 U/mL penicillin and 100 μg/mL streotimycin) at 37° C. in 5% CO2 humidified incubators. HL60 chronic myeloid leukemia were cultured in RPMI 1640 containing 15% fetal bovine serum and 1% antibiotics (100 U/mL penicillin and 100 μg/mL streotimycin) at 37° C. in 5% CO2 humidified incubators. HepG-2 human liver cancer cells were cultured in EMEM containing 10% of FBS, 1% of nonessential amino acids, 1 mM of Na-pyruvate, 1% of PenStrep antibiotics and 600 μg/mL of Geneticin. A549 human lung carcinoma cells, T24 human bladder carcinoma cells, MCF-7 human breast adenocarcinoma cells, U-2OS human osteosarcoma and NIH3T3 murine fibroblast cells were cultured in DMEM medium containing 10% fetal bovine serum and 1% antibiotics at 37° C. in 5% CO2 humidified incubators. MC3T3 mouse osteoblast cells were cultured in MEM medium containing 10% fetal bovine serum and 1% antibiotics at 37° C. in 5% CO2 humidified incubators. RWPE-1 human prostate normal cells were cultured in K-SFM medium containing 0.05 mg/ml bovine pituitary extract (BPE) and 5 ng/ml epidermal growth factor (EGF) at 37° C. in 5% CO2 humidified incubators. The MTT reagent (3-(4,5-dimethylthiazol-2-yl)-2,5-diphenyltetrazolium bromide) was used to determine cell death as originally described by Mosmaneland modified by Cuvillier et al.^[6] Briefly, cells were seeded 5,000 to 10,000 cells/well in 24-well plates depending on the cell type and allowed to attach overnight. All of the complexes were dissolved in DMSO. The concentration of the complexes was calculated according to the elemental composition of the complexes determined by the elemental analyses. Media in the presence of the tested complexes were added and serially diluted to various concentrations (from 5 μM to 0.01 μM). Next to these concentrations, for DHA 50, 20 and 10 μM and for the cationic bisNHC gold(I) complex 3 0.001 μM have been used. […] After 72 h of treatment, cells were incubated at 37° C. and 5% CO2 with 25 μL MTT solution (5 mg/mL; Sigma-Aldrich) in 24-well plates for approximately 3 to 4 h. After solubilization with 500 μL of lysis buffer (DMSO), formazan was quantified by spectrophotometry with a microplate reader at 570 nm absorbance. The GI50 values corresponding to the concentration that caused 50% inhibition of cell proliferation were calculated from dose-response curves obtained by nonlinear regression analysis (Prism 8, Graphpad Software). All the results were calculated from data obtained in three independent experiments.

[2] = test system: MC3T3 mouse osteoblast cells; assay: Cell viability MTT assay, MC3T3; type: cell-based; settings: for GI50: 72 h, MTT assay; for Selectivity index MC3T3: SI = GI50 (MC3T3)/GI50 (PC-3); for IC50: Table 3, non tumoral cell model, read-out: IC50 MC3-T3 (osteoblasts); for Specificity Bone: MC3-T3 (normal immortalized)/U2OS (tumoral): ratio of IC50, tumoral versus non tumoral cells of same tissue
Protocol: as §2

[3] = test system: Non tumoral cell models (MC3-T3, NIH3T3, RWPE1); assay: MTT assay, mean over non tumoral cell models; type: cell-based; settings: mean of MC3-T3, NIH3T3, RWPE1
Protocol: as §1

[4] = test system: PC-3 human prostate cancer cells; assay: Cell viability MTT assay, PC-3; type: cell-based; settings: for GI50: 72 h, MTT assay; for IC50: Table 3, tumor cell model
[5] = test system: MCF-7 human breast adenocarcinoma cells; assay: Cell viability MTT assay, MCF-7; type: cell-based; settings: for GI50: 72 h, MTT assay; for IC50: Table 3, tumor cell model
Protocol: as §2

[6] = test system: RWPE-1 human prostate normal cells; assay: Cell viability MTT assay, RWPE-1; type: cell-based; settings: for GI50: 72 h, MTT assay; for Selectivity index RWPE-1: SI = GI50 (RWPE-1)/GI50 (PC-3); for IC50: Table 3, non tumoral cell model, read-out: IC50 RWPE1 (prostatic epithelial cells); for Specificity Prostate: RWPE1 (normal immortalized)/PC-3 (tumoral): ratio of IC50, tumoral versus non tumoral cells of same tissue
Protocol: as §2, with “HepG-2” for “PC-3 human prostate cancer cells, and LAMA chronic myeloid leukemia were cultured in RPMI 1640 containing 10% fetal bovine serum and 1% antibiotics (100 U/mL penicillin and 100 μg/mL streotimycin) at 37° C. in 5% CO2 humidified incubators. HL60 chronic myeloid leukemia were cultured in RPMI 1640 containing 15% fetal bovine serum and 1% antibiotics (100 U/mL penicillin and 100 μg/mL streotimycin) at 37° C. in 5% CO2 humidified incubators. HepG-2”, “The GI50 values corresponding to the concentration that caused 50% inhibition of cell proliferation were calculated from dose-response curves obtained by nonlinear regression analysis (Prism 8, Graphpad Software).” left out

U-2OS human osteosarcoma = assay: Cell viability MTT assay, U-2OS; type: cell-based; settings: for GI50: 72 h, MTT assay; for IC50: Table 3, tumor cell model, read-out: IC50 U2OS (bone tumor)
Protocol: as §2

[7] = test system: LAMA chronic myeloid leukemia; assay: Cell viability MTT assay, LAMA; type: cell-based, human; settings: for GI50: 72 h, MTT assay; for IC50: Table 3, tumor cell model
Protocol: as §2

[8] = test system: NIH3T3 murine fibroblast cells; assay: Cell viability MTT assay, NIH3T3; type: cell-based; settings: for GI50: 72 h, MTT assay; for Selectivity index NIH3T3: SI = GI50 (non-cancer cell line NIH3T3)/GI50 (cancer cell line PC-3); for IC50: Table 3, non tumoral cell model, read-out: IC50 NIH3T3 (fibroblasts)
Protocol: as §2, with “HepG-2” for “PC-3 human prostate cancer cells, and LAMA chronic myeloid leukemia were cultured in RPMI 1640 containing 10% fetal bovine serum and 1% antibiotics (100 U/mL penicillin and 100 μg/mL streotimycin) at 37° C. in 5% CO2 humidified incubators. HL60 chronic myeloid leukemia were cultured in RPMI 1640 containing 15% fetal bovine serum and 1% antibiotics (100 U/mL penicillin and 100 μg/mL streotimycin) at 37° C. in 5% CO2 humidified incubators. HepG-2”, “The GI50 values corresponding to the concentration that caused 50% inhibition of cell proliferation were calculated from dose-response curves obtained by nonlinear regression analysis (Prism 8, Graphpad Software).” left out

[9] = test system: A549 human lung carcinoma cells; assay: Cell viability MTT assay, A549; type: cell-based; settings: for GI50: 72 h, MTT assay; for IC50: Table 3, tumor cell model
Protocol: as §2

[10] = test system: HepG-2 human liver cancer cells; assay: Cell viability MTT assay, HepG-2; type: cell-based
Protocol: as §1

[11] = test system: T24 human bladder carcinoma cells; assay: Cell viability MTT assay, T24; type: cell-based; settings: for GI50: 72 h, MTT assay; for IC50: Table 3, tumor cell model
Protocol: as §2

Structure (SMILES): CC(=O)OC[C@H]1O[C@@H]([S-])[C@H](OC(C)=O)[C@@H](OC(C)=O)[C@@H]1OC(C)=O.CCP(CC)CC.[Au+] [Auranofin]
IC50 (Tumor cell models): 1.46 µM | GI50 [1]: 0.95 µM | IC50 [1]: 951 nM | GI50 [2]: 1390 nM | Selectivity index MC3T3 [2]: 1.2 | IC50 [2]: 1390 nM | Specificity Bone: MC3-T3 (normal immortalized)/U2OS (tumoral) [2]: 2.9 | IC50 [3]: 0.86 µM | GI50 [4]: 1090 nM | IC50 [4]: 1090 nM | GI50 [5]: 1.39 µM | IC50 [5]: 1.39 µM | GI50 [6]: 0.084 µM | Selectivity index RWPE-1 [6]: 0.1 | IC50 [6]: 0.084 µM | Specificity Prostate: RWPE1 (normal immortalized)/PC-3 (tumoral) [6]: 0.1 | GI50 (U-2OS human osteosarcoma; read-out: GI50 U2OS): 470 nM | IC50 (U-2OS human osteosarcoma): 474 nM | GI50 [7]: 0.81 µM | IC50 [7]: 0.809 µM | GI50 [8]: 1100 nM | Selectivity index NIH3T3 [8]: 1.0 | IC50 [8]: 1100 nM | GI50 [9]: 4.41 µM | IC50 [9]: 4.41 µM | GI50 ([10]; 72 h): 3.62 µM | GI50 [11]: 1.1 µM | IC50 [11]: 1.1 µM

IC50 (Tumor cell models; Homo sapiens): 5.74 µM | GI50 ([1]; Homo sapiens, HL-60): 25 µM | IC50 ([1]; Homo sapiens, HL-60): 3250 nM | GI50 ([4]; Homo sapiens): 1560 nM | IC50 ([4]; Homo sapiens): 1560 nM | GI50 ([5]; Homo sapiens, MCF7): 9.67 µM | IC50 ([5]; Homo sapiens, MCF7): 9.67 µM | GI50 (U-2OS human osteosarcoma; Homo sapiens, U2OS): 4100 nM | IC50 (U-2OS human osteosarcoma; Homo sapiens, U2OS): 4100 nM | GI50 ([7]; Homo sapiens): 5.6 µM | IC50 ([7]; Homo sapiens): 5.6 µM | GI50 ([9]; Homo sapiens, A549): 11 µM | IC50 ([9]; Homo sapiens, A549): 11 µM | GI50 ([10]; Homo sapiens, HepG2, 72 h): 12 µM | GI50 ([11]; Homo sapiens): 4.99 µM | IC50 ([11]; Homo sapiens): 4.99 µM
Structure (SMILES): C[C@H]1[C@@H](O)O[C@@H]2O[C@]3(C)CC[C@H]4[C@H](C)CC[C@@H]1[C@@]24OO3 [DHA, dihydroartemisinin]
GI50 ([2]; Mus musculus, Osteoblast): 3550 nM | IC50 ([2]; Mus musculus, Osteoblast): 3550 nM | Selectivity index MC3T3 [2]: 2.3 | Specificity Bone: MC3-T3 (normal immortalized)/U2OS (tumoral) [2]: 0.9 | IC50 [3]: 5.7 µM | GI50 ([6]; Homo sapiens, RWPE-1): 9.68 µM | IC50 ([6]; Homo sapiens, RWPE-1): 9.68 µM | Selectivity index RWPE-1 [6]: 6.2 | Specificity Prostate: RWPE1 (normal immortalized)/PC-3 (tumoral) [6]: 6.2 | GI50 ([8]; Mus musculus, NIH3T3): 3860 nM | IC50 ([8]; Mus musculus, NIH3T3): 3860 nM | Selectivity index NIH3T3 [8]: 2.5
